Laboratory results: patent US10435752B2, “Use of ADCY3 for diagnosis and treatment of gastric cancer” (NATIONAL CANCER CENTER, priority 2012, dated 2019)

Experiments:
ADCY3 promoter = ADCY3 promoter methylation after in vitro demethylation (bisulfite sequencing); type: cell-based, human; conditions: KATO III cells, 10 μM, 96 hrs, FIG. 5D
Description: To assay the methylation status of the ADCY3 promoter, genomic DNA was bisulfite-treated using the EZ DNA Methylation-Gold Kit (ZYMO Research, USA), and treated with methylation-specific PCR primers (Table 3) that were designed using EpiDesigner (Sequenom, USA).
A methylation-specific high-resolution melting assay (MS-HRM) was performed using 10 ng of bisulfite-treated genomic DNA and ResoLight dye in a LightCycler 480 (Roche Applied Science) according to the manufacturer's protocol. Results were analyzed using Gene Scanning software (Roche). For bisulfite sequencing, the promoter region containing 39 CpG sites was amplified from the genomic DNA of bisulfite-treated gastric cells, cloned into the TOPO-TA vector (Invitrogen), and sequenced using the 3730xl DNA analyzer (Applied Biosystems).
To investigate the effects of promoter demethylation on ADCY3 expression, KATO III cells were incubated for 96 hrs in a culture medium with or without 5-Aza-2′-deoxycytidine (5-Aza-dC; Sigma Aldrich, USA) at a final concentration of 10 μM, and the mRNA level of ADCY3 was measured using qRT-PCR.

ADCY3 = ADCY3 mRNA level by qRT-PCR after demethylation; type: cell-based, human; conditions: KATO III cells, 10 μM, 96 hrs, relative to the negative control, FIG. 5E
Description: qRT-PCR reactions were performed using a LightCycler 480 (Roche Applied Science, UK) and ABI 7500 Fast Real-Time PCR system (Applied Biosystems). Results were quantified either by using β-actin for normalization (relative quantification), or by standard curve-based absolute quantification. To investigate the effects of promoter demethylation on ADCY3 expression, KATO III cells were incubated for 96 hrs in a culture medium with or without 5-Aza-2′-deoxycytidine (5-Aza-dC; Sigma Aldrich, USA) at a final concentration of 10 μM, and the mRNA level of ADCY3 was measured using qRT-PCR.

Nc1ncn([C@H]2C[C@H](O)[C@@H](CO)O2)c(=O)n1 [5-Aza-dC, 5-Aza-2′-deoxycytidine]
methylation of CpG sites in the ADCY3 promoter (ADCY3 promoter): demethylation of CpG sites | ADCY3 mRNA expression level (ADCY3): recovery of ADCY3 mRNA expression level
